Data set [1] deals with Mus musculus. The data set can be described thus: Antidepressant-like activity in Swiss albino mouse assessed as decrease in immobility time at 0.5 mg/kg, ip measured for 5 mins by forced swimming test relative to control. In kind it is functional. The conditions noted are these: route intraperitoneal.
For data set [2], the system named is Mus musculus. As to the kind of experiment: Antidepressant-like activity in Swiss albino mouse assessed as decrease in immobility time at 0.25 mg/kg, ip measured for 5 mins by forced swimming test relative to control. In kind it is functional. The settings on record: for inhibition in vivo at 0.25 mg/kg: route intraperitoneal.
The test system of data set [3] is Mus musculus. The data set can be described thus: Neurotoxicity in Swiss albino mouse assessed as effect on locomotor activity measured as total distance travelled at 0.5 mg/kg, ip measured for 2 min at 30 min intervals for 90 mins duration by open field test relative to control. The arrangement: dose 0.5 mg/kg, route intraperitoneal. The conditions noted are these: in vivo, 1.5 h. In kind it is toxicity, organism-based.

In data set [4] the test system is Mus musculus. The data set can be described thus: Antidepressant-like activity in Swiss albino mouse assessed as decrease in immobility time at 0.5 mg/kg, ip measured for 5 mins by tail suspension test relative to control. On the set-up: dose 0.5 mg/kg. Type of data set: functional, organism-based.
The subject of data set [5] is Mus musculus. As to the kind of experiment: Neurotoxicity in Swiss albino mouse assessed as effect on locomotor activity measured as horizontal activity at 0.5 mg/kg, ip measured for 2 min at 30 min intervals for 90 mins duration by open field test relative to control. In kind it is toxicity, organism-based. On the set-up: dose 0.5 mg/kg, route intraperitoneal. The settings on record: in vivo, 1.5 h.

For data set [6], the system named is Mus musculus. As to the kind of experiment: Neurotoxicity in Swiss albino mouse assessed as motor impairment effects at 1 mg/kg, ip measured for 30 to 180 mins duration by rotarod test relative to control. The conditions noted are these: in vivo. The arrangement: dose 1 mg/kg, route intraperitoneal. Type of data set: toxicity, organism-based.
The subject of data set [7] is Mus musculus. The data set can be described thus: Antidepressant-like activity in Swiss albino mouse assessed as decrease in immobility time at 1 mg/kg, ip measured for 5 mins by forced swimming test relative to control. In kind it is functional, organism-based. On the set-up: dose 1 mg/kg.
Data set [8] deals with Mus musculus. The data set can be described thus: Antidepressant-like activity in Swiss albino mouse assessed as decrease in immobility time at 20 mg/kg, ip measured for 5 mins by forced swimming test relative to control. The conditions noted are these: route intraperitoneal. Type of data set: functional.

Calls of active or inactive are those of the source. No cut-off for these calls is given here.

Here are results for 22 molecules from ChEMBL document CHEMBL3351975, “Design and synthesis of new series of coumarin-aminopyran derivatives possessing potential anti-depressant-like activity” (Bioorg Med Chem Lett, 2015).

For `COc1cc(-c2cc3cc(C4C(C#N)=C(N)OC5=C4C(=O)CCC5)cc(C(C)(C)C)c3oc2=O)cc(OC)c1OC` (centres undefined), the inhibition in vivo at 0.5 mg/kg with Mus musculus [1] was 5.33%.
`COc1ccc(-c2cc3cc(C4C(C#N)=C(N)OC5=C4C(=O)CCC5)cc(C(C)C)c3oc2=O)cc1` (centres undefined): the inhibition result in the data set with Mus musculus [2] was “inactive”. In addition, the inhibition in vivo at 0.5 mg/kg with Mus musculus [1] was 69.7%. Moreover, the Activity entry in the data set with Mus musculus [3], in the data set with Mus musculus [5] and in the data set with Mus musculus [6] was “Non-toxic” in each case. Moreover, the outcome in the data set on Mus musculus [4] and in the data set on Mus musculus [7] was Active.
With `COc1ccc(-c2cc3cc(C4C(C#N)=C(N)OC5=C4C(=O)CCC5)cc(C(C)C)c3oc2=O)cc1OC` (centres undefined), in the data set on Mus musculus [2], the inhibition in vivo at 0.25 mg/kg was found to be 49%. For the same molecule, the inhibition in vivo at 0.5 mg/kg in the data set with Mus musculus [1] turned out to be 57.2%. Further, the Activity entry in the data set with Mus musculus [3], in the data set with Mus musculus [5] and in the data set on Mus musculus [6] was “Non-toxic” throughout. Moreover, the result in the data set on Mus musculus [4] and in the data set with Mus musculus [7] was Active.
As to `COc1cc(-c2cc3cc(C4C(C#N)=C(N)OC5=C4C(=O)CCC5)cc(C(C)C)c3oc2=O)cc(OC)c1OC` (centres undefined), the inhibition in vivo at 0.5 mg/kg in the data set on Mus musculus [1] was determined as 31.9%.
As for `COc1cc(-c2cc3cc(C4C(C#N)=C(N)OC5=C4C(=O)CC(C)(C)C5)cc(C(C)C)c3oc2=O)cc(OC)c1OC` (centres undefined), the inhibition in vivo at 0.5 mg/kg with Mus musculus [1] came out at 29.2%. Further, the outcome in the data set on Mus musculus [7] was Active.
For the molecule `COc1cc(-c2cc3cc(C4C(C#N)=C(N)OC5=C4C(=O)CC(C)(C)C5)cc(C(C)(C)C)c3oc2=O)cc(OC)c1OC` (centres undefined), the inhibition in vivo at 0.5 mg/kg in the data set with Mus musculus [1] turned out to be 30.1%.
Still for that read-out and setting: as for `COc1ccc(-c2cc3cc(C4C(C#N)=C(N)OC5=C4C(=O)CC(C)(C)C5)cc(C(C)(C)C)c3oc2=O)cc1OC` (centres undefined), the figure is 22.5%.
Same read-out and setting: as for `COc1ccc(-c2cc3cc(C4C(C#N)=C(N)OC5=C4C(=O)CC(C)(C)C5)cc(C(C)(C)C)c3oc2=O)cc1` (centres undefined), the figure is 27.2%; as for `COc1ccc(-c2cc3cc(C4C(C#N)=C(N)OC5=C4C(=O)CCC5)cc(C(C)(C)C)c3oc2=O)cc1OC` (centres undefined), -16.6%.
Consider `COc1ccc(-c2cc3cc(C4C(C#N)=C(N)OC5=C4C(=O)CCC5)cc(C(C)(C)C)c3oc2=O)cc1` (centres undefined), for which, in the data set with Mus musculus [1], the inhibition in vivo at 0.5 mg/kg worked out at 30.6%. For the same molecule, the result in the data set with Mus musculus [7] was Active.
In the case of `CCC(C)c1cc(C2C(C#N)=C(N)OC3=C2C(=O)CCC3)cc2cc(-c3cc(OC)c(OC)c(OC)c3)c(=O)oc12` (centres undefined), the inhibition entry with Mus musculus [2] was “inactive”. The inhibition in vivo at 0.5 mg/kg with Mus musculus [1] is 56.1%. For the same molecule, the Activity result with Mus musculus [3], in the data set with Mus musculus [5] and with Mus musculus [6] was “Non-toxic” in each case. The outcome in the data set on Mus musculus [4] and in the data set with Mus musculus [7] was Active.
Take `CN(C)CCCN1c2ccccc2CCc2ccccc21`: in the data set on Mus musculus [4], the outcome was Active.
Consider `COc1ccc(-c2cc3cc(C4C(C#N)=C(N)OC5=C4C(=O)CC(C)(C)C5)cc(C(C)C)c3oc2=O)cc1OC` (centres undefined), for which, in the data set on Mus musculus [2], the inhibition in vivo at 0.25 mg/kg was determined as 41%. Further, the inhibition in vivo at 0.5 mg/kg with Mus musculus [1] was determined as 86.6%. The Activity entry with Mus musculus [3], with Mus musculus [5] and with Mus musculus [6] was “Non-toxic” throughout. In addition, the outcome in the data set on Mus musculus [4] and with Mus musculus [7] was Active.
As to `COc1cc(-c2cc3cc(C4C(C#N)=C(N)OC5=C4C(=O)CC(C)(C)C5)cc(C)c3oc2=O)cc(OC)c1OC` (centres undefined), the inhibition in vivo at 0.5 mg/kg in the data set with Mus musculus [1] was determined as 6.37%.
As for `CCC(C)c1cc(C2C(C#N)=C(N)OC3=C2C(=O)CC(C)(C)C3)cc2cc(-c3ccc(OC)c(OC)c3)c(=O)oc12` (centres undefined), the inhibition in vivo at 0.25 mg/kg in the data set on Mus musculus [2] was 35%. For the same molecule, the inhibition in vivo at 0.5 mg/kg with Mus musculus [1] was 57.4%. The Activity result in the data set on Mus musculus [3], in the data set with Mus musculus [5] and in the data set on Mus musculus [6] was “Non-toxic” throughout. The result in the data set on Mus musculus [4] and with Mus musculus [7] was Active.
On to `CCC(C)c1cc(C2C(C#N)=C(N)OC3=C2C(=O)CC(C)(C)C3)cc2cc(-c3cc(OC)c(OC)c(OC)c3)c(=O)oc12` (centres undefined), for which, in the data set on Mus musculus [1], the inhibition in vivo at 0.5 mg/kg was 28.2%. For the same molecule, the result in the data set on Mus musculus [7] was Active.
As for `CNCCC(Oc1ccc(C(F)(F)F)cc1)c1ccccc1` (centres undefined) [FLUOXETINE], the inhibition in vivo at 20 mg/kg with Mus musculus [8] is 69.8%. For the same molecule, the result with Mus musculus [4] was Active.
Consider `CCC(C)c1cc(C2C(C#N)=C(N)OC3=C2C(=O)CC(C)(C)C3)cc2cc(-c3ccc(OC)cc3)c(=O)oc12` (centres undefined), for which the inhibition in vivo at 0.5 mg/kg in the data set with Mus musculus [1] worked out at 26.9%. Further, in the data set with Mus musculus [7], the result was Active.
In the case of `COc1cc(-c2cc3cc(C4C(C#N)=C(N)OC5=C4C(=O)CCC5)cc(C)c3oc2=O)cc(OC)c1OC` (centres undefined), the inhibition in vivo at 0.5 mg/kg in the data set with Mus musculus [1] came to 5.22%.
As to `COc1ccc(-c2cc3cc(C4C(C#N)=C(N)OC5=C4C(=O)CC(C)(C)C5)cc(C(C)C)c3oc2=O)cc1` (centres undefined), in the data set with Mus musculus [2], the inhibition entry was “inactive”. The inhibition in vivo at 0.5 mg/kg with Mus musculus [1] is 64.9%. The Activity entry in the data set with Mus musculus [3], in the data set with Mus musculus [5] and in the data set on Mus musculus [6] was “Non-toxic” in each case. The outcome with Mus musculus [4] and with Mus musculus [7] was Active.
With `CCC(C)c1cc(C2C(C#N)=C(N)OC3=C2C(=O)CCC3)cc2cc(-c3ccc(OC)cc3)c(=O)oc12` (centres undefined), the inhibition in vivo at 0.5 mg/kg in the data set on Mus musculus [1] stood at 35%. In addition, the outcome in the data set with Mus musculus [7] was Active.
With `COc1ccc(-c2cc3cc(C4C(C#N)=C(N)OC5=C4C(=O)CC(C)(C)C5)cc(C)c3oc2=O)cc1OC` (centres undefined), in the data set with Mus musculus [1], the inhibition in vivo at 0.5 mg/kg worked out at 10.4%.
